Results: patent US20240091328A1, “FORMULATIONS AND METHODS FOR MHC-I RESTRICTED EPITOPE IMMUNIZATION” (The Research Foundation for The State University of New York, priority 2021, published 2024)
Structures can show the parent of a compound that is named as a salt.

Legend:
[1] = test system: RAW264.7 murine macrophage cells; assay: In vitro cell uptake of A5-HiLyte488, macrophages; format: cell-based, mouse; conditions: cells pre-incubated with inhibitor 10 μg/mL for an hour, CPQ/A5
Description: For in vitro cell uptake studies, RAW264.7 cells (2.5×10^5 per well) and BMDCs (2.5×10^5 per well) were cultured in a 24-well plates overnight, then treated with CPQ/A5-HiLyte488, 2HPQ/A5-HiLyte488 and PBS/A5-HiLyte488 (peptide concentration of 1 μg/mL) for 10 min, 30 min or an hour. For phagocytosis and endocytosis inhibitor study, cells were first pre-incubated with cytochalasin B (10 μg/ml) or chlorpromazine (10 μg/mL) for an hour before the cell uptake study. Cells were washed and lysed with 0.1% Triton X-100 and 10 mM dithiothreitol (DTT). The fluorescence signals were measured before and after adding DTT. Cellular A5-HiLyte488 uptakes were calculated by preparing an A5-HiLyte488 standard curve.

[2] = test system: IFN-γ and TNF-α producing CD8^+ T cells; assay: Intracellular IFN-γ / TNF-α staining of splenocytes after antigen re-stimulation; format: in vivo, BALB/c mice; conditions: mice vaccinated with CPQ and 20 RENCA peptides
Description: For Intracellular staining: 100 μL of 1×10^6 splenocytes were seeded in a flat bottom 96 wells plate and stimulated with 10 μg/mL antigen for 15-18 hours in the cell culture incubator. Then Brefeldin A was added to the plates with a dilution of 1000× for another 5 hours. Cells were transferred to a round bottom 96 wells plate and centrifuged at 1350 rpm for 3 mins, the cell pellets were washed twice and stained with 500× live/dead fixable dye, 200× diluted APC anti-mouse CD8, 200× diluted FITC anti-mouse CD4, 200× diluted PE/Cy7 anti-mouse CD62L and 200× diluted PerCP/Cy5.5 […] 25 min at 4° C. with shaking. Cells were washed twice and fixed and permeabilized by fixation/permeabilization buffer for 20 min at 4° C. Cells were washed twice with perm wash buffer and stained with 200× diluted pacific blue anti-mouse IFN-γ and 200× diluted PE anti-mouse TNF-α for 30 min on ice. Cells were washed twice by perm/wash buffer for flow cytometry.

RENCA cells [3] = assay: Prophylactic vaccine tumor model, subcutaneous RENCA challenge; format: in vivo, BALB/c mice; conditions: single peptide with CoPoP liposome, days 0 and 7, RENCA day 14
Description: Multivalent vaccine was prepared by first incubate all 20 peptides with CPQ and 2HPQ liposome for a hour at room temperature with a mass ratio of 1:4. The binding percentage of peptides was assessed by peptide filtration assay. […] There was no significant change of sizes of liposome before or after binding, which were around 100 nm (FIG. 19B). The polydispersity index of liposomes is smaller than 0.25 (FIG. 19C). Mice were vaccinated with CPQ/peptides on day0 & 7, the injection dose is 50 ng per peptide and lug total peptide per mouse. Mice were then challenged with RENCA cells subcutaneously on day14.
To confirm which peptide was responsible to the anti-tumor efficacy of the vaccine, we admixed single peptide with CoPoP liposome as a vaccine to inject BALB/c mice. These 20 vaccines were injected to 20 groups of BALB/c mice on day 0 & 7, RENCA cells were inoculated on day14.
(§1) Tumor challenge: For the prophylactic vaccine tumor model, mice were vaccinated on day 0 and 7, and challenged on day 14. For testing the long-term protection of vaccine, mice were challenged on day 80. […] Tumor growth was monitored three times a week and tumor sizes were calculated by equation: Tumor volume=length×width^2/2. […] Tumor nodules were counted manually and lung weights were measured.

RENCA cells [4] = assay: Cell lysis by splenocyte effector cells, LDH release, RENCA targets; format: cell-based, mouse; conditions: single peptide vaccine
Description: FIG. 20. […] BALB/c mice were immunized with CPQ/peptide vaccine on day 0 & 7, then inoculated with RENCA cells subcutaneously on day 14. (A) Tumor sizes of mice vaccinated with CPQ admixed with indicated peptide 18 days post tumor inoculation. Splenocytes were prepared 18 days post tumor inoculation and cultured in vitro for 5 days then stimulated with antigens and served as Effector cells (E), tumor cells were target cells (T). Effector cells were incubated with target cells for 5 hours, then specific lysis was analyzed by the nonradioactive LDH release assay by following the manufacturer's instructions. Percent cell lysis of RENCA cells (B) and percent cell lysis of irrelevant TC-1 cells (C). Error bars show mean+/−std. dev. for n=5 independent experiments.
For Cytotoxic T lymphocyte (CTL) cytotoxicity assay, isolated splenocytes were cultured in the cell culture medium and stimulated by mouse IL-2 (Pepro tech; catalog: 212-12; 10 IU/mL) and antigens (10 μg/mL) for 5 days to use as the effector cells. 5000 CT26 cells were seeded in a 96 wells plate and pulsed with 10 μg/mL antigens for 1 hour, then splenocytes were added to the plate at different E:T ratios for 5 hours. The cytotoxicity of splenocytes on tumor cells was assessed by lactate dehydrogenase (LDH) release using Non-Radioactive Cytotoxicity Assay Kit (Promega; catalog: G1780) according to manufacturer instructions.

CT26 cells = assay: Experimental lung metastasis tumor model, CT26; format: in vivo, BALB/c mice; conditions: 1000 ng (total) peptides with CPQ, 1 and 8 days after i.v. CT26
Description: Tumor challenge: For the prophylactic vaccine tumor model, mice were vaccinated on day 0 and 7, and challenged on day 14. For testing the long-term protection of vaccine, mice were challenged on day 80. For the therapeutic vaccine tumor model, mice were inoculated with tumor cells subcutaneously on day 0, and then vaccinated with indicated vaccine on days 5 and 12. Tumor growth was monitored three times a week and tumor sizes were calculated by equation: Tumor volume=length×width^2/2. Animals were euthanized when the tumor sizes reached 1 cm in diameter or when animals developed an ulceration. For the experimental lung metastasis tumor model, animals were injected intravenously via tail vein with tumor cells on day 0, then were left untreated or treated with intramuscular injection with the indicated vaccines on day 2 and 9 for the A5 vaccine studies or day 1 and 8 for the RragcL385P, Tmem5S71N or EML5G44R peptide screening studies. Lungs were excised and stained with Bouin's solution (Sigma Catalog: HT10132) on day 18 for mice injected with CT26 cells and on day 16 for mice injected with 4T1 cells. Tumor nodules were counted manually and lung weights were measured.

[5] = test system: IFN-γ producing CD8^+ T cells; assay: Intracellular IFN-γ in CD8+ T cells of re-stimulated PBMCs; format: in vivo, C57BL/6 mice; conditions: multivalent E6/E7 vaccine, 100 ng each peptide
Description: The E6 and E7 genes of TC-1 cells were sequenced from extracted DNA using Sanger sequencing. Six predicted H-2K^b- and H-2D^b-restricted epitopes within the top percentile of MHC-I binders were identified using a neural network simulation algorithm. […] These 6 peptides were combined with CPQ to form a single multivalent vaccine for mice and the immunogenicity of each peptide were assessed by Interferon gamma (IFN-γ production after individual peptide stimulation of collected peripheral blood mononuclear cells (PBMCs). Mice were then challenged with TC-1 cells subcutaneously to assess the tumor protection of the vaccine (FIG. 21A).
Collected PBMCs were re-stimulated with the epitope candidates that comprised the multivalent vaccine after which CD8^+ T cells were assessed for intracellular IFN-γ production, indicating the induction of Ag-specific CD8^+ T cells. […] When PBMCs from mice injected with the non-particle forming 2HPQ/peptides were re-stimulated with the peptides, none induced IFN-γ producing CD8^+ T cells (FIG. 21E).

TC-1 cells = assay: Prophylactic vaccine tumor model, subcutaneous TC-1 challenge; format: in vivo, C57BL/6 mice; conditions: days 0 and 7, challenge day 14
Source text: To determine immunogenicity, C57BL/6 mice were then vaccinated intramuscularly with the multivalent vaccine on days 0 & 7, and peripheral blood mononuclear cells (PBMCs) were collected and mice challenged with TC-1 tumor cells on day 14. […] Thus, the presentation of the peptides in the form of a particle, even with identical amounts of QS-21 and MPLA, appeared to be important for inducing memory CD8^+ T cells.
Next, to determine which of the peptide epitopes provided anti-tumor activity, peptides were admixed individually with CPQ or 2HIPQ liposomes (FIG. 22A). Individually, all of the peptides effectively bound to CPQ liposomes, but not to 2HIPQ liposomes lacking cobalt (FIG. 22B). Liposome size remained ˜100 nm after binding with E6 and E7 peptides (FIG. 22C). Next, mice were vaccinated with the peptides admixed with CPQ on days 0 & 7 at a peptide dose of 500 ng. Each mouse was then challenged with TC-1 cells on day 14. […]
as §1, with “14.” for “14. For testing the long-term protection of vaccine, mice were challenged on day 80.”

IFN-γ = assay: In vivo peptide micro-library screening, IFN-γ ELISA of re-stimulated splenocytes relative to A5; design: species or system mice; conditions: rank among 100 micro-library peptides; IFN-γ on re-stimulation relative to A5; 5 peptides plus A5 with CPQ
Description: Mice were immunized with 5 library peptides at a time, along with the A5 peptide, with all peptides combined and admixed with CPQ. After two intramuscular injections, splenocytes were collected, and then re-stimulated with each of the synthetic micro-library peptides, individually. Production of IFN-γ was measured and peptide immunogenicity was determined relative to the A5 peptide, which served as in internal control that could induce strong Ag-specific CD8^+ T cell responses.
For Ag screening, multivalent vaccine composed of peptide with the same MHC-I haplotypes (H-2L^d, H-2D^d, or H-2K^d) and the internal A5 peptide were admixed with CPQ. After immunization, only ˜10% of MHC-I binding peptides induced T cells in splenocytes that produced IFN-γ with peptide re-stimulation, and none were nearly as effective as A5 (FIG. 16B). The most highly immunogenic peptides only produced about a quarter of the level of IFN-γ relative to A5. […] It is also feasible that immunization with higher antigen doses of single individual peptides could have induced stronger immunogenic responses, although this would decrease the in vivo peptide micro-library screening throughput.
IFN-γ ELISA: 2.5×10^5 splenocytes were seeded in a 96 wells plate and stimulated with 10 μg/mL antigens for 72 hr. 50 μL of supernatant was collected from each well and subjected to Interferon gamma ELISA (Thermofisher; catalog: BMS606TEN) according to manufacturer protocol.

C=C1[C@@H](C)[C@H]2[C@H](Cc3ccccc3)NC(=O)[C@]23OC(=O)/C=C/[C@H](O)CCC[C@@H](C)C/C=C/[C@H]3[C@@H]1O [cytochalasin B]
A5 peptide uptake by macrophages in the presence of inhibitor [1]: significantly less

3His-AYTTQREEL (HHHAYTTQREEL; N-terminal 3His tag; Renca_2)
IFN-γ producing CD8^+ T cells in the spleen after stimulation with individual peptide [2]: around 2%
Tumor growth, single peptide vaccine (RENCA cells [3]): inhibited tumor growth
Lysis of RENCA cells by T cells of vaccinated mice (RENCA cells [4]): induced functional T cells that specific targets to RENCA cells

Eml5G44R: 9-mer neoantigen peptide; tagged forms CT71 and 3his-CT71 (VYFVAGVRV)
Lung nodules (CT26 cells): no significant difference

Tmem5S71N: 9-mer neoantigen peptide; tagged forms CT96 and 3his-CT96 (VVEANWTML) (HHHVVEANWTML; N-terminal 3His tag; 3his-CT96/Tmem5S71N)
Lung nodules (CT26 cells): no significant difference

CN(C)CCCN1c2ccccc2Sc2ccc(Cl)cc21 [chlorpromazine, Chlorpromazine hydrochloride]
A5 peptide uptake by macrophages in the presence of inhibitor [1]: significantly less

H3-TLHEYMLDL (HHHTLHEYMLDL; H3 N-terminal flank; E76-14)
IFN-γ producing cells of CD8+ T cells over background after peptide re-stimulation of PBMCs [5]: higher percentage

3His-GYHESGHAI (HHHGYHESGHAI; N-terminal 3His tag; Renca_8)
IFN-γ producing CD8^+ T cells in the spleen after stimulation with individual peptide [2]: ~5%

H3-STHVDIRTL (HHHSTHVDIRTL; H3 N-terminal flank; E771-79)
IFN-γ producing cells of CD8+ T cells over background after peptide re-stimulation of PBMCs [5]: higher percentage

H3-RAHYNIVTF (HHHRAHYNIVTF; H3 N-terminal flank; E749-57)
IFN-γ producing cells of CD8+ T cells over background after peptide re-stimulation of PBMCs [5]: higher percentage
Tumor-free survival maintained (TC-1 cells; 500 ng peptide with CPQ): at least 60 days
Tumor growth after TC-1 challenge, single peptide with CPQ (TC-1 cells; 500 ng peptide): inhibited tumor growth

H6-KGPYWLEVK-ERR (HHHHHHKGPYWLEVKERR; CT44)
Experimental rank (IFN-γ): 44

H6-GHVAAGGAL-ERR (HHHHHHGHVAAGGALERR; CT79)
Experimental rank (IFN-γ): 46

H6-SYQAALAEN-ERR (HHHHHHSYQAALAENERR; CT77)
Experimental rank (IFN-γ): 39

H6-KLLASALST-ERR (HHHHHHKLLASALSTERR; CT39*)
Experimental rank (IFN-γ): 5

H6-KYFQAGKYE-ERR (HHHHHHKYFQAGKYEERR; CT69)
Experimental rank (IFN-γ): 21
